Activity calls are given as the source filed them. No cut-off for these calls is given here.
Columns and labels:
[1] = Inhibition of PLA2
[2] = system: Photobacterium leiognathi; assay: Antimicrobial activity against Photobacterium leiognathi at 10 ug/ml by paper disk method; type: functional
[3] = system: Photobacterium leiognathi; assay: Antimicrobial activity against Photobacterium leiognathi by bioluminescence; type: functional, organism-based
[4] = Inhibition of Na+/K+-ATPase

Activity [1] | IC50 [3] | Activity [4] | IC50 [4] | IC50 [1] | Structure (SMILES) | Activity [2] | Activity [3] | zone of inhibition at 10 µg/mL ([2]; read-out: IZ)
inactive | 90 µM | inactive |  |  | CC(=O)OC[C@H]1[C@@H](OC(C)=O)CC[C@H]2C(C)(C)CCC[C@]12C | inactive |  | 
inactive |  | inactive |  |  | CO[C@@H]1O[C@H](O)[C@@]2(O)CC[C@H]3C(C)(C)CCC[C@]3(C)[C@@H]12 | inactive | inactive | 
inactive | 90 µM | inactive |  |  | CO[C@@H]1OC[C@H]2CC[C@H]3C(C)(C)CCC[C@]3(C)[C@H]21 | inactive |  | 
inactive | 90 µM | inactive |  |  | CC(=O)O[C@@H]1OC=C2CC[C@H]3C(C)(C)CCC[C@]3(C)[C@H]21 | inactive |  | 
 | 90 µM |  | 45 µM | 113 µM | CC1(C)CCC[C@]2(C)[C@H]3C(=O)OC[C@@H]3CC[C@@H]12 | inactive |  | 

The remaining lines, values behind:

Structure (SMILES) | Activity [1] | IC50 [3] | Activity [4] | IC50 [4] | IC50 [1] | Activity [2] | Activity [3] | zone of inhibition at 10 µg/mL ([2]; read-out: IZ)
CC(=O)OC[C@H]1CC[C@H]2C(C)(C)CCC[C@]2(C)[C@H]1COC(C)=O | inactive |  | inactive |  |  | inactive | inactive | 
CC1(C)CCC[C@]2(C)[C@@H](C=O)C(C=O)=CC[C@@H]12 [POLYGODIAL] | inactive | 11.4 µM |  | 82 µM |  |  |  | 8 mm
CC1(C)CCC[C@]2(C)/C(=C/O)C(=O)CC[C@@H]12 | inactive |  | inactive |  |  | inactive | inactive | 
CC(=O)O[C@@H]1OC(=O)C2=CC[C@H]3C(C)(C)CCC[C@]3(C)[C@H]21 | inactive |  | inactive |  |  | inactive | inactive | 
CC(=O)O[C@@H]1OC(=O)C2=C1[C@@]1(C)CCCC(C)(C)[C@@H]1CC2 | inactive |  |  | 98 µM |  | inactive | inactive | 

Reference: ChEMBL document CHEMBL1158877, “Sesquiterpenoids of the drimane class from a sponge of the genus Dysidea” (J Nat Prod, 1997)
